Holding throughout (format): physicochemical
Series [1] is described as follows: High temperature suitability of dye composition. The following applies: 180° C. for 2 hours without a cap; for High temperature suitability, Dihexyl ether (present invention): 20% by mass dye in dihexyl ether; for High temperature suitability, Dipentyl ether (present invention): 20% by mass dye in dipentyl ether; for High temperature suitability, Decane (comparative): 20% by mass dye in n-decane. How it is done: Each dye composition was placed in a vial, and the vial was left standing in an oil bath without a cap at 180° C. for 2 hours. The mass of the vial after standing was weighed and evaluated according to the following evaluation criteria.
A: Decrease in the mass of the vial was less than 10%.
B: Decrease in the mass of the vial was 10% or more.

A short description of series [2]: Solubility of dye in nonpolar solvent. As to conditions: for Solubility Dihexyl ether: in dihexyl ether at 25° C. and 0.1 MPa; for Solubility n-Decane: in n-decane at 25° C. and 0.1 MPa. How it is done: Each of the prepared 20% by mass solutions (dye compositions) was heated at 50° C. and then left standing at room temperature for 12 hours to obtain a supernatant liquid. The amount of the unsolved dye was weighed and the solubility of each pigment in dihexyl ether or n-decane at 25° C. and 0.1 MPa was calculated.

Series [3] can be described thus: Low temperature suitability of dye composition. The arrangement: key: A dye composition was maintained in a liquid state.; B: A dye composition was not maintained in a liquid state, and changed to a solid state. As to conditions: -41° C. for 12 hours; for Low temperature suitability, Dihexyl ether (present invention): 20% by mass dye in dihexyl ether; for Low temperature suitability, Dipentyl ether (present invention): 20% by mass dye in dipentyl ether; for Low temperature suitability, Decane (comparative): 20% by mass dye in n-decane. The method, then:
Each dye composition was placed in a vial, and the vial was left standing in an ice bath (calcium chloride+ice) at −41° C. for 12 hours. The condition of each dye composition after standing was observed and evaluated according to the following evaluation criteria.
A: A dye composition was maintained in a liquid state.
B: A dye composition was not maintained in a liquid state, and changed to a solid state.

Series [4] can be described thus: Relative dielectric constant of nonpolar solvent. As to conditions: 1 kHz, 20° C. and 40% RH. The method, then:
The relative dielectric constant is determined by injecting a nonpolar solvent in a glass cell with a 10-μm cell gap provided with an ITO transparent electrode, and measuring the electrical capacity of the obtained cell using a 2353LCR METER manufactured by NF Corporation (measurement frequency: 1 kHz) at 20° C. and 40% RH.

Consider `CCCCC(CC)CN(CC(CC)CCCC)c1ccc(/C=C2\C(=O)ON=C2C(C)(C)C)c(C)c1` (stereo not drawn) [Dye P-1], for which, in series [1], the “High temperature suitability, Dihexyl ether (present invention)” value is “A (Decrease in the mass of the vial was less than 10%.)”; the “High temperature suitability, Dipentyl ether (present invention)” value is reported as “A (Decrease in the mass of the vial was less than 10%.)”; the “High temperature suitability, Decane (comparative)” value was “B (Decrease in the mass of the vial was 10% or more.)”. In series [2], the “Solubility Dihexyl ether” value is 20 or more % by mass and the “Solubility n-Decane” value is recorded as 20 or more % by mass. In addition, in series [3], the “Low temperature suitability, Dihexyl ether (present invention)” value is listed as “A”; the “Low temperature suitability, Dipentyl ether (present invention)” value is reported as “A”; the “Low temperature suitability, Decane (comparative)” value is reported as “B”.

With `CCCCC(CC)CN(CC(CC)CCCC)c1ccc(/N=C2/C(C)=Nn3nc(C(C)(C)C)nc32)cc1` (stereo not drawn) [Dye P-2], in series [1], the “High temperature suitability, Dihexyl ether (present invention)” value is reported as “A (Decrease in the mass of the vial was less than 10%.)”; the “High temperature suitability, Dipentyl ether (present invention)” value is on record as “A (Decrease in the mass of the vial was less than 10%.)”; the “High temperature suitability, Decane (comparative)” value is given as “B (Decrease in the mass of the vial was 10% or more.)”. Moreover, in series [2], the “Solubility Dihexyl ether” value is on record as 20 or more % by mass and the “Solubility n-Decane” value was 20 or more % by mass. Further, in series [3], the “Low temperature suitability, Dihexyl ether (present invention)” value was “A”; the “Low temperature suitability, Dipentyl ether (present invention)” value is given as “A”; the “Low temperature suitability, Decane (comparative)” value is recorded as “B”.

Turning to `C1CCC(OC2CCCCC2)CC1` [dicyclohexyl ether], in series [4], the “relative dielectric constant ∈r” value worked out at 2.1.

On to `CCCCCCCCCCCCOCCCCCCCCCCCC` [didodecyl ether], for which, in series [4], the “relative dielectric constant ∈r” value turned out to be 2.1.

For the compound `CCCCCCCOCCCCCCC` [diheptyl ether], in series [4], the “relative dielectric constant ∈r” value amounted to 2.1.

Consider `CCCCCCOCCCCCC` [dihexyl ether], for which the “relative dielectric constant ∈r” value in series [4] is 2.1.

In the case of `CCCCCOCCCCC` [dipentyl ether], the “relative dielectric constant ∈r” value in series [4] was determined as 2.1.

Source of the values: US20150253591A1, “DYE COMPOSITION FOR ELECTROWETTING DISPLAY AND ELECTROWETTING DISPLAY DEVICE” (FUJIFILM CORPORATION, priority 2012, published 2015).
